From US9290535B2, “Uridine-based gadolinium complex and MRI contrast agent including the same” (Korea University Researchand Business Foundation, priority 2011, dated 2016)

Key:
[1] = Relaxivity measurements (r1, r2) in PBS solution; type: physicochemical; details: PBS solution, 36° C.
Protocol: Longitudinal and transverse relaxivities, r1 and r2, were measured at 20 MHz (0.47 T) and 60 MHz (1.41 T) at 36° C. on NMR (mq20 and mq60, Bruker, Germany) and animal MRI (Biospec 47/40, Bruker, Germany) systems. T1 and T2 relaxation times were measured with inversion recovery and spin-echo pulse sequences, respectively.
The relaxation efficiency of the newly synthesized amphiphilic MRI contrast agents according to the present invention was determined by measuring longitudinal relaxivity (r1) and transverse relaxivity (r2) at 20 MHZ (0.47 T) and 60 MHz (1.41 T) in phosphate buffered saline (PBS) solution at 36° C.

[2] = Contrast-enhanced dynamic MRI in mice (CNR in liver and blood); type: in vivo, Balb/C mice; details: i.v. injection, 4.7 T
Protocol: The whole-body pharmacokinetics of T1 contrast agents can be measured by dynamic 2D or 3D MR imaging.
5-Week-old male Balb/C mice (n=3; OrientBio, Korea) were used for contrast-enhanced dynamic MRI. MRI was performed by using a 4.7 T MRI system (BioSpec 47/40; Bruker, Germany) with a quadrature birdcage RF coil (35 mm inner diameter) for signal transmission and reception.
Bolus of the contrast agents (0.1 mmol Gd/kg) was injected via tail vein. During MRI acquisition, the animals were anesthetized using 1-1.25% of inhalational isoflurane with O2:N2O (3:7) mixture.
To quantitatively measure signal intensity in region-of-interests (ROIs) as contrast-noise ratio (CNR), a reference of water sample (1 g/l CuSO4 in 8:2 of D2O:H2O) in a cylindrical tube (5 mm diameter) was used.
Dynamic 2D T1-weighted images were acquired using a spin-echo (SE) pulse sequence with the following parameters: TE/TR=10/400 ms, number of average=4, matrix size=256×256, slice thickness=1 mm, field of view=30×30 mm^2 (in axial slice) or 50×30 mm^2 (in coronal slice), and scan time=6 min 50 s).
Dynamic 3D T1-weighted images were acquired using a fast low angle shot gradient echo (FLASH) pulse sequence with parameters of TE/TR=2.4/7.5 ms, number of average=4, flip angle=30°, field of view=30×30×20 mm^3, matrix size=256×256×128, and scan time=12 min 17 s.

[3] = clinically used commercial T1 contrast agents, comparison values; cited from earlier work

For CNC(=O)CN(CCN(CCN(CC(=O)[O-])CC(=O)NC)CC(=O)[O-])CC(=O)[O-].[Gd+3] [Omniscan ®, Gd-DTPA-BMA, reference compound], the “Relaxivity r1” value ([1]; 20 MHz (0.47 T)) was 4.41 mM⁻¹ s⁻¹, the “Relaxivity r1” value ([1]; 60 MHz (1.41 T)) was 3.68 mM⁻¹ s⁻¹ and the “Peak CNR in liver” value [2] was “about 2.8”. The “Relaxivity retained after transmetallation (commercial contrast agents)” value [3] was 10%.
